Measured values reported in patent publication US20170114025A1, “METHODS FOR INHIBITING NECROPTOSIS” (Catalyst Therapeutics Pty Ltd, priority 2014, published 2017).
Where two headings read alike, the source gives them in different places.

What was measured:
[1] = target: T1, mouse MLKL(179-464) pseudokinase domain (Mus musculus, UniProt Q9D2Y4); assay: Surface Plasmon Resonance (SPR) binding, mouse MLKL
T1 construct: made in house; host or cells: Sf21 insect cells
T1 sequence (Q9D2Y4 179-464 isoform Q9D2Y4-2): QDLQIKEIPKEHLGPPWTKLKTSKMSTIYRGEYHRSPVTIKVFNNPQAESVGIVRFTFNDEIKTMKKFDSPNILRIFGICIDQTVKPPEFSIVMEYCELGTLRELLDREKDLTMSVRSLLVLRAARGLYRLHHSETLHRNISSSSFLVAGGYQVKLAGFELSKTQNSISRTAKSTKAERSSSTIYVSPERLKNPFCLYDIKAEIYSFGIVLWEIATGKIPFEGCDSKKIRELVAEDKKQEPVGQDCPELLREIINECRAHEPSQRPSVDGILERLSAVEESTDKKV
Description: Double His-tagged MLKL and an unrelated negative control reference protein were immobilized on an NTA Capture chip charged with Ni^2+ according to manufacturer's instructions. In some instances, double His-tagged proteins were captured via Ni^2+/NTA chelation on a series S sensor chip containing carboxymethylated dextran surface pre-immobilized with nitrilotriacetic acid (NTA). The surface was then activated and enhanced with NHS/EDC mixture and His captured proteins covalently coupled to the surface as succinamide esters. Ethanolamine was injected later to block any unreacted esters. Unbound Ni^2+ and non-covalently bound proteins were eluted by EDTA injections.
Typical immobilization levels were 2000-3000 Response Units (RU). Flow cell 1 was left blank as a reference surface. Immobilization experiments were carried out at 25° C. in a running buffer containing 20 mM HEPES (pH 8.0), 200 mM NaCl and 0.005% (v/v) surfactant P20.
Binding experiments were carried out in Running Buffer+2% v/v DMSO. […] Data were reduced, solvent corrected, and double referenced by Biacore T200 Evaluation Software. Data were fit globally to a two state kinetic interaction model and the Kd determined from the (kd/ka) ratio. A 1:1 binding stoichiometry was inferred from the steady state binding curves and the maximum observed Response Unit (RU) levels.

[2] = system: wild type MDFs (mouse dermal fibroblasts); assay: Cell death assay, TSQ-induced necroptosis in MDFs (PI, flow cytometry); type: cell-based; settings: 24 h
Description: (§1) Mouse dermal fibroblasts (MDFs) were isolated from three MlkI^−/− mice and three congenic wild type mice and then immortalized by SV40 large T antigen to generate three biologically independent cell lines, as described in Murphy J M, et al. (2013), Immunity 39(3):443-453. Immortalized MDFs were similarly prepared from three Ripk3^−/− mice and congenic wild type mice. MDFs and HEK293T were maintained in Dulbecco's modified Eagle's medium (DMEM) supplemented with 8-10% v/v fetal calf serum (FCS), and 5 μg/mL puromycin for lines stably transduced with inducible expression constructs for MLKL. U937 cells were cultured in RPMI1640 supplemented with 8% v/v FCS. Cell death assays were carried out in 24 well plates, seeding 1×10^5 cells per well. Cells attached over 4 h in the presence of 10 ng/mL doxycycline or 20 ng/mL were then treated with assorted combinations of Necrostatin (50 μM) and Q-VD-OPh (5 μM) 30 min prior to addition of TNF (100 ng/mL) and Smac mimetic (500 nM). After 24 h for MDF cells or 48 h for U937 cells, cells were harvested and PI positive cells (1 μg/mL) quantified using a BD FACSCalibur flow cytometer.

[3] = system: U937 human histiocytic leukemia cell line; assay: Screening for inhibition of TSQ induced necroptosis, 96 well plate format; type: cell-based; settings: U-937, 48 h
Method: Screening Compounds for Inhibition of TSQ Induced Necroptosis, 96 Well Plate Format.
U937 human histiocytic leukemia cell line.
35,000 per well in 120 μL of media, counted and plated immediately prior to addition of inhibitor and death stimuli. Final well volume of 150 μL after addition of compounds and death stimuli
HTRPMI (WEHI Media kitchen, contains L-Glutamine and penicillin, streptomycin)—supplemented with 7.4% v/v FCS (Gibco, Precision Plus. Lot #1221437)
48 hours following addition of compounds and death stimuli
DMSO Final Concentration (% v/v): 0.2%
Compounds that are in the Death Stimulation Cocktail and their Final Concentrations: • hTNF-Fc (100 ng/ml)—produced by Silke lab, WEHI • Compound A (500 nM)—Smac mimetic, Tetralogic • Q-VD-OPh (10 μM)—MP Biomedicals
Analysis: • Cells treated with PI staining (1 μg/ml) and analysed by flow cytometry
TNF; S: Smac mimetic; Q: Q-VD-OPh): TSQ treatment ensures that cells specifically undergo necroptotic cell death. TNF activates the TNF receptor, Smac mimetic direct the signal away from proinflammatory signaling and toward the RIP1/RIP3-mediated cell death pathways, and Q-VD-OPh ensures that the apoptotic response is blocked leaving only the programmed necrosis response. The compounds' activity (solution in DMSO) tested in this TSQ-induced assay is evaluated by measuring their ability to block cell death as measured by flow cytometry after PI staining.

U937 cells = assay: Counter screen: cell viability without TSQ cocktail (off target effect); type: cell-based; settings: U937 without TSQ cocktail
Method: In parallel, all compounds are tested for their ability to affect cell viability. The same U937 cells are treated with compound in DMSO without the TSQ cocktail. This counter screen enables evaluation of off-target effects. In this case gain, cell viability is measured by flow cytometry after PI staining.

wild-type MDFs = assay: Toxicity of compound in wild-type MDFs; type: cell-based; settings: triplicate experiments
Description: as §1

## CN(c1ccc(NC(=O)Nc2ccc(OC(F)(F)F)cc2)cc1)c1ccnc(Nc2cccc(S(N)(=O)=O)c2)n1 [Compound 1, 3-((4-(methyl(4-(3-(4-(trifluoromethoxy)phenyl)ureido)phenyl)amino)pyrimidin-2-yl)amino)benzenesulfonamide]
[1]
  Kd: 9300 nM
[2]; Mus musculus, Fibroblast, read-out: IC50, rescue from TSQ-induced necroptosis
  IC50: ~500 nM
[2]; wt MDFs
  cells rescued from TSQ-induced necroptosis: ~50%
[3]; read-out: Cell based assay Average
  IC50: 69.4 nM
[3]; read-out: Cell based assay IC50
  IC50: 25.4 nM
U937 cells; compound at 500 nM
  Off target effect (% cell death) at 500 nM: <20%
U937 cells; compound at 1 uM
  Off target effect (% cell death) at 1 uM: <20%
U937 cells; compound at 5 uM
  Off target effect (% cell death) at 5 uM: 60%
U937 cells; compound at 10 uM
  Off target effect (% cell death) at 10 uM: 79%
wild-type MDFs
  concentrations at which toxicity induces death of wild-type MDFs: ≥ 5 µM
